Source: patent publication US11040035B2, “3-oxo-2,6-diphenyl-2,3-dihydropyridazine-4-carboxamides” (BAYER PHARMA AKTIENGESELLSCHAFT, priority 2016, dated 2021)

What was measured:
[1] = target: T1, AHR (Homo sapiens, UniProt P35869); experiment: In vitro assay 1: antagonism in human cell line (transactivation assay, kynurenic acid prestimulated); conditions: Assay 1: AHR-luc Hum Antagonism IC50 [M], 150 μM kynurenic acid, 20 hours, firefly luciferase
T1 sequence (P35869 11-848): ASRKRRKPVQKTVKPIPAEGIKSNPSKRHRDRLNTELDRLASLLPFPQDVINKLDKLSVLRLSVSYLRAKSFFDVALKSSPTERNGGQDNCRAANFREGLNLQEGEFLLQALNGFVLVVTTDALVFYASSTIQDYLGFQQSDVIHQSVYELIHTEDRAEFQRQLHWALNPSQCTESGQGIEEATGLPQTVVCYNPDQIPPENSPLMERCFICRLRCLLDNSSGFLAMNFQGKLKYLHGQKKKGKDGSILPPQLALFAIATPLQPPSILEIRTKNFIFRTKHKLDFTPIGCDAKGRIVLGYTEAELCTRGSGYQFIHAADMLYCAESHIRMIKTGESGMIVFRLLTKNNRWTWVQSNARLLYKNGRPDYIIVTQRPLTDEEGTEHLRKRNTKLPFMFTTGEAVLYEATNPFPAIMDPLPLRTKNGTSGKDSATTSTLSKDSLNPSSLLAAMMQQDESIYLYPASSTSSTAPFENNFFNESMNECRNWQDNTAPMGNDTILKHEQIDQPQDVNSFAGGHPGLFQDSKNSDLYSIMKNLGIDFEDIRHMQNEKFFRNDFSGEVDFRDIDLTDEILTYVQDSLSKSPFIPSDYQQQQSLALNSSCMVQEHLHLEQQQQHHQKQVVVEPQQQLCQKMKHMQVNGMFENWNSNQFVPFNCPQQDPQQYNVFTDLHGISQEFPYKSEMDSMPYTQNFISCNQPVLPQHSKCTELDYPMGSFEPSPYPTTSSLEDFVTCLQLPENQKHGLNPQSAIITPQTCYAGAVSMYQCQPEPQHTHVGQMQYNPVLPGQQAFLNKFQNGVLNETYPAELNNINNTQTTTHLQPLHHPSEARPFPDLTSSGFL

[2] = target: T1, AHR; experiment: In vitro assay 2: agonism in human cell line (transactivation assay)
[3] = read-out: Assay 2: AHR-luc Hum Agonism IC50, no kynurenic acid, 20 hours, firefly luciferase
[4] = Assay 2: AHR-luc Hum Agonism IC50 [M], no kynurenic acid, 20 hours, firefly luciferase

SMILES	IC50 [1] [M]	IC50 [2, 3] [M]	IC50 [2, 4] [M]
O=C(N[C@H]1COC[C@@H]1O)c1cc(-c2ccc(Cl)cc2)nn(-c2cccc(F)c2)c1=O (single isomer, unassigned) [Example 136, 6-(4-Chlorophenyl)-2-(3-fluorophenyl)-N-(trans-4-hydroxytetrahydrofuran-3-yl)-3-oxo-2,3-dihydropyridazine-4-carboxamide]	1.43e-07	> 2e-05	
CC(O)C(C)NC(=O)c1cc(-c2ccc(OC(F)F)cc2)nn(-c2cccc(F)c2)c1=O (single isomer, unassigned) [Example 141, 6-[4-(Difluoromethoxy)phenyl]-2-(3-fluorophenyl)-N-(3-hydroxybutan-2-yl)-3-oxo-2,3-dihydropyridazine-4-carboxamide]	7.81e-08		> 2e-05
CC(O)C(C)NC(=O)c1cc(-c2ccc(OC(F)F)cc2)nn(-c2cccc(F)c2)c1=O (single isomer, unassigned) [Example 142, 6-[4-(Difluoromethoxy)phenyl]-2-(3-fluorophenyl)-N-(3-hydroxybutan-2-yl)-3-oxo-2,3-dihydropyridazine-4-carboxamide]	9.15e-07	> 2e-05	
O=C(NC(CO)C1CCOC1)c1cc(-c2ccc(OC(F)F)cc2)nn(-c2cccc(F)c2)c1=O (single isomer, unassigned) [Example 146, 6-[4-(Difluoromethoxy)phenyl]-2-(3-fluorophenyl)-N-{(2-hydroxy-1-tetrahydrofuran-3-yl)ethyl}-3-oxo-2,3-dihydropyridazine-4-carboxamide]	2.94e-07	> 2e-05	
O=C(NC(CO)C1CCOC1)c1cc(-c2ccc(OC(F)F)cc2)nn(-c2cccc(F)c2)c1=O (single isomer, unassigned) [Example 147, 6-[4-(Difluoromethoxy)phenyl]-2-(3-fluorophenyl)-N-{(2-hydroxy-1-tetrahydrofuran-3-yl)ethyl}-3-oxo-2,3-dihydropyridazine-4-carboxamide]	4.66e-07	> 2e-05	
O=C(NC(CO)C1CCOC1)c1cc(-c2ccc(OC(F)F)cc2)nn(-c2cccc(F)c2)c1=O (single isomer, unassigned) [Example 148, 6-[4-(Difluoromethoxy)phenyl]-2-(3-fluorophenyl)-N-{(2-hydroxy-1-tetrahydrofuran-3-yl)ethyl}-3-oxo-2,3-dihydropyridazine-4-carboxamide]	5.33e-07	> 2e-05	
O=C(NC(CO)C1CCOCC1)c1cc(-c2ccc(Cl)cc2)nn(-c2cccc(F)c2)c1=O (single isomer, unassigned) [Example 150, 6-(4-Chlorophenyl)-2-(3-fluorophenyl)-N-[2-hydroxy-1-(tetrahydro-2H-pyran-4-yl)ethyl]-3-oxo-2,3-dihydropyridazine-4-carboxamide]	2.35e-07		> 2e-05
O=C(NC(CO)C1CCOCC1)c1cc(-c2ccc(Cl)cc2)nn(-c2cccc(F)c2)c1=O (single isomer, unassigned) [Example 151, 6-(4-Chlorophenyl)-2-(3-fluorophenyl)-N-[2-hydroxy-1-(tetrahydro-2H-pyran-4-yl)ethyl]-3-oxo-2,3-dihydropyridazine-4-carboxamide]	1.24e-07	> 2e-05	
O=C(NC(CO)C(F)(F)F)c1cc(-c2ccc(OC(F)(F)F)cc2)nn(-c2cccc(F)c2)c1=O (single isomer, unassigned) [Example 171, 2-(3-Fluorophenyl)-3-oxo-N-(1,1,1-trifluoro-3-hydroxypropan-2-yl)-6-[4-(trifluoromethoxy)phenyl]-2,3-dihydropyridazine-4-carboxamide]	6.77e-07	> 2e-05	
CC(O)C(C)NC(=O)c1cc(-c2ccc(OC(F)(F)F)cc2)nn(-c2cccc(F)c2)c1=O (single isomer, unassigned) [Example 180, 2-(3-Fluorophenyl)-N-(3-hydroxybutan-2-yl)-3-oxo-6-[4-(trifluoromethoxy)phenyl]-2,3-dihydropyridazine-4-carboxamide]	1.24e-07		> 2e-05
CC(O)C(NC(=O)c1cc(-c2ccc(Cl)cc2)nn(-c2cccc(F)c2)c1=O)C(F)(F)F (single isomer, unassigned) [Example 199, Isomer no. 2 of 6-(4-chlorophenyl)-2-(3-fluorophenyl)-3-oxo-N-(1,1,1-trifluoro-3-hydroxybutan-2-yl)-2,3-dihydropyridazine-4-carboxamide]	5.84e-07	> 2e-05	
CC(NC(=O)c1cc(-c2ccc(C(F)(F)F)cc2)nn(-c2cccc(F)c2)c1=O)C(O)C(F)(F)F (single isomer, unassigned) [Example 269, Isomer no. 2 of 2-(3-fluorophenyl)-3-oxo-N-(4,4,4-trifluoro-3-hydroxybutan-2-yl)-6-[4-(trifluoromethyl)phenyl]-2,3-dihydropyridazine-4-carboxamide]	> 2e-05		3.85e-09
O=C(N[C@@H]1CCCC(F)(F)[C@H]1O)c1cc(-c2ccc(Cl)cc2)nn(-c2cccc(F)c2)c1=O (single isomer, unassigned) [Example 276, 6-(4-Chlorophenyl)-N-[(trans)-3,3-difluoro-2-hydroxycyclohexyl]-2-(3-fluorophenyl)-3-oxo-2,3-dihydropyridazine-4-carboxamide]	1.45e-07	> 2e-05	
CC(C)(O)C(NC(=O)c1cc(-c2ccc(Cl)cc2)nn(-c2cccc(F)c2)c1=O)C(F)(F)F (single isomer, unassigned) [Example 278, 6-(4-Chlorophenyl)-2-(3-fluorophenyl)-3-oxo-N-(1,1,1-trifluoro-3-hydroxy-3-methylbutan-2-yl)-2,3-dihydropyridazine-4-carboxamide]	2.05e-07		> 2e-05
O=C(NCC(O)C(F)(F)F)c1cc(-c2ccc(Cl)c(F)c2)nn(-c2cccc(F)c2)c1=O (single isomer, unassigned) [Example 283, 6-(4-chloro-3-fluorophenyl)-2-(3-fluorophenyl)-3-oxo-N-(3,3,3-trifluoro-2-hydroxypropyl)-2,3-dihydropyridazine-4-carboxamide]	1.91e-07		> 2e-05
O=C(NCC(O)C(F)(F)F)c1cc(-c2ccc(Cl)c(F)c2)nn(-c2cccc(F)c2)c1=O (single isomer, unassigned) [Example 284, 6-(4-chloro-3-fluorophenyl)-2-(3-fluorophenyl)-3-oxo-N-(3,3,3-trifluoro-2-hydroxypropyl)-2,3-dihydropyridazine-4-carboxamide]	8.39e-07	> 2e-05	
O=C(NC(CO)C1CCOC1)c1cc(-c2ccc(Cl)c(F)c2)nn(-c2cccc(F)c2)c1=O (single isomer, unassigned) [Example 292, 6-(4-Chloro-3-fluorophenyl)-2-(3-fluorophenyl)-N-[2-hydroxy-1-(tetrahydrofuran-3-yl)ethyl]-3-oxo-2,3-dihydropyridazine-4-carboxamide]	3.09e-07		> 2e-05
O=C(NC(CO)C1CCOC1)c1cc(-c2ccc(Cl)c(F)c2)nn(-c2cccc(F)c2)c1=O (single isomer, unassigned) [Example 294, 6-(4-Chloro-3-fluorophenyl)-2-(3-fluorophenyl)-N-[2-hydroxy-1-(tetrahydrofuran-3-yl)ethyl]-3-oxo-2,3-dihydropyridazine-4-carboxamide]	6.17e-07	> 2e-05	
O=C(NC(CO)C1CCOC1)c1cc(-c2ccc(Cl)c(F)c2)nn(-c2cccc(F)c2)c1=O (single isomer, unassigned) [Example 295, 6-(4-Chloro-3-fluorophenyl)-2-(3-fluorophenyl)-N-[2-hydroxy-1-(tetrahydrofuran-3-yl)ethyl]-3-oxo-2,3-dihydropyridazine-4-carboxamide]	8.3e-07	> 2e-05	
O=C(NC[C@@H](O)C(F)(F)F)c1cc(-c2ccc(Cl)c(Cl)c2)nn(-c2cccc(F)c2)c1=O (single isomer, unassigned) [Example 299, 6-(3,4-Dichlorophenyl)-2-(3-fluorophenyl)-3-oxo-N-(3,3,3-trifluoro-2-hydroxypropyl)-2,3-dihydropyridazine-4-carboxamide]	7.42e-07		> 2e-05
O=C(NCC(O)C(F)(F)F)c1cc(-c2ccc(Cl)c(Cl)c2)nn(-c2cccc(F)c2)c1=O (single isomer, unassigned) [Example 308, 6-(3,4-Dichlorophenyl)-2-(3-fluorophenyl)-3-oxo-N-(3,3,3-trifluoro-2-hydroxypropyl)-2,3-dihydropyridazine-4-carboxamide]	1.77e-07		> 2e-05
